From PubChem BioAssay AID1508612

Experiment: passive permeability, PAMPA, ADME assay (AID 1508612)
Conditions: pH 7.4, 30.0 min, 50.0 µM

| SMILES | Papp [×10⁻⁶ cm/s] |
| --- | --- |
| OC(CCN1CCCCC1)c1ccc(-c2ccccc2)cc1 (stereo not drawn) | > 1000 |
| COc1cc(-c2nc(-c3ccccc3)c(-c3cccs3)[nH]2)cc(OC)c1O | 530 |
| OCc1ccc(-c2cc3c(ccn3Cc3cccnc3)c(C3=CCOCC3)n2)cc1 | 478 |
| O=C(CCCN1CCC(n2c(=O)[nH]c3ccccc32)CC1)c1ccc(F)cc1 | 952 |
| O=S(=O)(Nc1cccc(C(F)(F)F)c1)c1ccc(NS(=O)(=O)c2ccc3c(c2)OCCO3)cc1 | 668 |
| CN1C(=O)C(=O)N2C(=C[C@]3(c4c[nH]c5ccccc45)c4ccccc4N[C@H]23)C1=O | 209 |
| Cc1ccc(C(=O)Nc2ccc3oc(-c4cccnc4)nc3c2)cc1[N+](=O)[O-] | 82.5 |
| O=C1Nc2ccccc2/C1=C\c1ccc(O)c(F)c1 | 343 |
| O=C(Nc1ccccc1C(=O)Nc1ccccc1C(=O)NCc1ccco1)c1ccco1 | > 1000 |
| CNC(=O)c1nn(C)c2c1C(C)(C)Cc1cnc(Nc3ccc(N4CCN(C)CC4)cc3)nc1-2 | > 1000 |
| Cc1ccc(N2CCC(CNc3nc(-c4ccccc4C(C)C)ncc3F)CC2)cn1 | > 1000 |
| COc1ccc2[nH]c(S(=O)Cc3ncc(C)c(OC)c3C)nc2n1 (stereo not drawn) | 183 |
| O=C1Nc2ccccc2/C1=C/c1cc(Cl)c(O)c(Cl)c1 | 49 |
| O=C(NCc1ccco1)c1nc2nc(-c3cccs3)cc(C(F)(F)F)n2n1 | 257 |
| COc1ccc(CCNC(=O)c2cc3c(=O)n4ccccc4nc3n(CCCN3CCOCC3)c2=N)cc1 | 394 |
| Cc1nn2c(c1-c1ccccc1-c1ccccc1)N(Cc1ccccc1)CCC2 | 381 |
| CCN1C(=O)c2ccccc2S(=O)c2ccc(NC(=O)Cc3ccc(F)cc3)cc21 (stereo not drawn) | > 1000 |
| O=C(c1nc(-c2ccc(Cl)nc2)c2ccccn12)N1CCCC1 | > 1000 |
| COc1ccc(Nc2nc(-c3ccncc3)nc3ccccc23)cc1F | 107 |

| SMILES | Papp [×10⁻⁶ cm/s] |
| --- | --- |
| CCc1ccc(-n2nc(C)c3c2NC(=O)CSC3c2ccccc2C)cc1 (stereo not drawn) | 707 |
| O=c1c(O)c(-c2ccc(O)cc2)oc2cc(O)cc(O)c12 | 46.6 |
| O=S(=O)(c1ccc2ccccc2c1)N1CCN(c2nc(-c3cccs3)nc3ccccc23)CC1 | 3.2 |
| N#Cc1ccc(N2N=C3c4ccc(C(=O)O)cc4CC[C@@H]3[C@@H]2C2CCCC2)cc1Cl | 272 |
| CC#CC(=O)N1CCC[C@H]1c1nc(-c2ccc(C(=O)Nc3ccccn3)cc2)c2c(N)nccn12 | 39.9 |
| O=C1C(SCCO)=C(SCCO)C(=O)c2ccccc21 | 108 |
| CCN(CCCOc1ccc2c(Nc3cc(CC(=O)Nc4cccc(F)c4)[nH]n3)ncnc2c1)CCOP(=O)(O)O | < 1 |
| CC(=O)OCCN1C(=O)c2c(C)nc3ccc(S(=O)(=O)N4CCOCC4)cc3c2C1=O | 665 |
| O=C(Cc1ccccc1)Nc1ccc(S(=O)(=O)Nc2nccs2)cc1 | 1.67 |
| COc1cccc(CNC(=O)c2c(OC)cc(=O)n3c2CCN(C(=O)c2ccc(C)cc2C)CC3)c1 | 93.9 |
| CCOc1ccc(-c2nnc(SCC(=O)NCc3ccccc3Cl)o2)cc1 | 5.1 |
| CNc1oc(-c2cccc3ccccc23)nc1C(=O)OC | > 1000 |
| CN(C)c1ccc(-c2cc[nH]c(=O)c2N)cc1 | 116 |
| COc1ccc(-n2nc(C3CCN([S+](=O)([O-])c4c(C)noc4C)CC3)[nH]c2=O)cc1 | 403 |
| CCn1nnnc1Sc1ncnc2scc(-c3ccc(C)cc3)c12 | > 1000 |
| COc1ccc(C2Nc3ccccc3C(=O)N2Cc2ccco2)cc1 (stereo not drawn) | 799 |
| Fc1ccc(Nc2nc(-n3ccnc3)nc3ccccc23)cc1F | 223 |
| O=C(NCC1(c2nc(-c3ccccc3)cs2)CCOCC1)c1cccc(-c2noc(C(F)(F)F)n2)c1 | 665 |
| CC(=O)Nc1ccc(OCc2cn(CC(=O)c3ccc(O)cc3)nn2)cc1 | < 1 |
